Results taken from publication PMC11162409, “Phenylalanine as an effective stabilizer and aggregation inhibitor of Bacillus amyloliquefaciens alpha-amylase” (AMB Express, 2024).

Molecular target: Bacillus amyloliquefaciens alpha-amylase (BAA) (Bacillus amyloliquefaciens, UniProt P00692)
Experiment: Bernfeld DNS assay of starch hydrolysis ([…] nm) with commercial enzyme
Type: biochemical

Sequence of Bacillus amyloliquefaciens alpha-amylase (BAA) (P00692 32-514): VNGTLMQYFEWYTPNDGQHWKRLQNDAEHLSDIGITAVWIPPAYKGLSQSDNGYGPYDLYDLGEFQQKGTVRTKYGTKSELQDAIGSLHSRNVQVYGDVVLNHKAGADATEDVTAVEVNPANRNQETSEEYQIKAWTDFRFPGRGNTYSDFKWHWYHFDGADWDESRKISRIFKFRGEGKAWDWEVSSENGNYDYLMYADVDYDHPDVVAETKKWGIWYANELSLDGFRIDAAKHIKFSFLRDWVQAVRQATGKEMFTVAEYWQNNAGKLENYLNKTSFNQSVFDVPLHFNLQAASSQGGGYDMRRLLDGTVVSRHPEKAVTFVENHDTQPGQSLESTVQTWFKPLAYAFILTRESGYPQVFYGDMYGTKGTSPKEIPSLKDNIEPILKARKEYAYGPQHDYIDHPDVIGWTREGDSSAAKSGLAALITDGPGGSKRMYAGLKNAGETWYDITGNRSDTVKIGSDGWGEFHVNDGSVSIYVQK

Compound `N[C@@H](Cc1ccc(O)cc1)C(=O)O` [Tyr, tyrosine] has an IC50 of roughly 100 mM.
